Measured values reported in PubChem BioAssay (NCI).
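Method: 48-hour compound exposure of cells in 96-well plates, five concentrations, linear interpolation of endpoints. TGI: total growth inhibition.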

Assays:
Experiment in all cases: NCI tumour cell line growth inhibition, 48 h
SK-OV-3 ovarian = test system: SK-OV-3 ovarian
SN12C renal = test system: SN12C renal
HCC-2998 colon = test system: HCC-2998 colon
OVCAR-3 ovarian = test system: OVCAR-3 ovarian
U251 CNS = test system: U251 CNS
NCI-H226 lung = test system: NCI-H226 lung
K-562 leukemia = test system: K-562 leukemia
LOX IMVI melanoma = test system: LOX IMVI melanoma
MDA-MB-435 = test system: MDA-MB-435
TK-10 renal = test system: TK-10 renal
NCI-H460 lung = test system: NCI-H460 lung
SR leukemia = test system: SR leukemia
SF-295 CNS = test system: SF-295 CNS
HL-60(TB) leukemia = test system: HL-60(TB) leukemia
OVCAR-8 ovarian = test system: OVCAR-8 ovarian
786-0 renal = test system: 786-0 renal
CAKI-1 renal = test system: CAKI-1 renal
IGROV1 ovarian = test system: IGROV1 ovarian
UACC-62 melanoma = test system: UACC-62 melanoma
CCRF-CEM leukemia = test system: CCRF-CEM leukemia
RPMI-8226 leukemia = test system: RPMI-8226 leukemia
RXF 393 renal = test system: RXF 393 renal
SNB-75 CNS = test system: SNB-75 CNS
HOP-92 NSCLC = test system: HOP-92 NSCLC
NCI/ADR-RES ovarian = test system: NCI/ADR-RES ovarian
NCI-H23 lung = test system: NCI-H23 lung
SF-539 CNS = test system: SF-539 CNS
ACHN renal = test system: ACHN renal
HOP-62 NSCLC = test system: HOP-62 NSCLC
HS 578T breast = test system: HS 578T breast
NCI-H522 lung = test system: NCI-H522 lung
T-47D breast = test system: T-47D breast
MDA-N = test system: MDA-N
PC-3 prostate = test system: PC-3 prostate
SNB-19 CNS = test system: SNB-19 CNS
MCF7 breast = test system: MCF7 breast
DU-145 prostate = test system: DU-145 prostate
EKVX NSCLC = test system: EKVX NSCLC
KM12 colon = test system: KM12 colon
BT-549 breast = test system: BT-549 breast
COLO 205 colon = test system: COLO 205 colon
SW-620 colon = test system: SW-620 colon
HCT-116 colon = test system: HCT-116 colon
SK-MEL-2 melanoma = test system: SK-MEL-2 melanoma
OVCAR-5 ovarian = test system: OVCAR-5 ovarian
UO-31 renal = test system: UO-31 renal
SK-MEL-5 melanoma = test system: SK-MEL-5 melanoma
MOLT-4 leukemia = test system: MOLT-4 leukemia
HCT-15 colon = test system: HCT-15 colon
M14 melanoma = test system: M14 melanoma
A498 renal = test system: A498 renal
SF-268 CNS = test system: SF-268 CNS
UACC-257 melanoma = test system: UACC-257 melanoma
MDA-MB-231 breast = test system: MDA-MB-231 breast
OVCAR-4 ovarian = test system: OVCAR-4 ovarian

## O=C1CSC2=NC3=C(COC/C3=C\c3ccc(F)cc3)C(c3ccc(F)cc3)N12 (stereo not given)
SK-OV-3 ovarian
  TGI: > 100 µM
SN12C renal
  TGI: > 100 µM
HCC-2998 colon
  TGI: > 100 µM
OVCAR-3 ovarian
  TGI: > 100 µM
U251 CNS
  TGI: > 100 µM
NCI-H226 lung
  TGI: > 100 µM
K-562 leukemia
  TGI: > 100 µM
LOX IMVI melanoma
  TGI: > 100 µM
MDA-MB-435
  TGI: > 100 µM
TK-10 renal
  TGI: > 100 µM
NCI-H460 lung
  TGI: > 100 µM
SR leukemia
  TGI: > 100 µM
SF-295 CNS
  TGI: > 100 µM
HL-60(TB) leukemia
  TGI: 34.5 µM
OVCAR-8 ovarian
  TGI: > 100 µM
786-0 renal
  TGI: > 100 µM
CAKI-1 renal
  TGI: > 100 µM
IGROV1 ovarian
  TGI: > 100 µM
UACC-62 melanoma
  TGI: > 100 µM
CCRF-CEM leukemia
  TGI: 74.5 µM
RPMI-8226 leukemia
  TGI: > 100 µM
RXF 393 renal
  TGI: > 100 µM
SNB-75 CNS
  TGI: > 100 µM
HOP-92 NSCLC
  TGI: > 100 µM
NCI/ADR-RES ovarian
  TGI: > 100 µM
NCI-H23 lung
  TGI: > 100 µM
SF-539 CNS
  TGI: > 100 µM
ACHN renal
  TGI: > 100 µM
HOP-62 NSCLC
  TGI: > 100 µM
HS 578T breast
  TGI: > 100 µM
NCI-H522 lung
  TGI: > 100 µM
T-47D breast
  TGI: > 100 µM
MDA-N
  TGI: > 100 µM
PC-3 prostate
  TGI: > 100 µM
SNB-19 CNS
  TGI: > 100 µM
MCF7 breast
  TGI: > 100 µM
DU-145 prostate
  TGI: > 100 µM
EKVX NSCLC
  TGI: > 100 µM
KM12 colon
  TGI: > 100 µM
BT-549 breast
  TGI: > 100 µM
COLO 205 colon
  TGI: > 100 µM
SW-620 colon
  TGI: > 100 µM
HCT-116 colon
  TGI: > 100 µM
SK-MEL-2 melanoma
  TGI: > 100 µM
OVCAR-5 ovarian
  TGI: > 100 µM
UO-31 renal
  TGI: > 100 µM
SK-MEL-5 melanoma
  TGI: > 100 µM
MOLT-4 leukemia
  TGI: > 100 µM
HCT-15 colon
  TGI: > 100 µM
M14 melanoma
  TGI: > 100 µM
A498 renal
  TGI: > 100 µM
SF-268 CNS
  TGI: > 100 µM
UACC-257 melanoma
  TGI: > 100 µM
MDA-MB-231 breast
  TGI: > 100 µM
OVCAR-4 ovarian
  TGI: > 100 µM
